A word on the MIC: it is the smallest concentration in the dilution series that meets the test's criterion for growth inhibition. A lower MIC goes with inhibition by little substance.

Common to all, as to assay type: cell-based
One experiment deals with SW48. The experiment is described as follows: In vitro cell-killing, MTT assay, SW48. The note with it: Homo sapiens, SW48, 72 h, read-out: In vitro cell-killing (IC50), Cytotoxicity (72 hours). How it is done:
(§1) Tumor cell lines were maintained in RPMI1640 medium supplemented with 10% heat-inactivated fetal bovine serum, 2 mM L-glutamine and 1 mM sodium pyruvate. 1800 cells per well were seeded in a volume of 180 μl in a 96-well flat bottom polystyrene plate. The cells were allowed to adhere overnight at 37° C. in a CO2 incubator. Ligands were initially formulated in DMSO, and stocks stored at −80° C. They were then further formulated at lox concentration in RPMI1640 medium. 20 ul of diluted samples were added into each treatment well. On each plate, blank wells with no cells, and untreated wells containing cells, were included. Plates were then cultured at 37° C. in a CO2 incubator for 72 hrs. Cytotoxicity was evaluated using a tetrazolium salt-based assay, the MTT assay. After 72 hours, the supernatant was removed from each well and 200 μl of a sterile filtered 500 μg/ml MTT solution in water added to each well. […] The plate was then read on a plate reader at 540 nm, and percentage cell survival calculated as follows: ((mean absorbance treated wells at concentration x−mean absorbance blank wells)+(mean absorbance untreated wells at concentration x−mean absorbance blank wells))×100. Data were plotted as concentration in nM vs. % cell survival in Microsoft Excel, and IC50 values (concentration where cell survival is reduced by a half) were determined from the graph.
In general terms: Tetrazolium assays rely on reduction of a dye to a coloured formazan, in cell work by metabolically active cells.

A further experiment relates to LIM1215. The experiment is described as follows: In vitro cell-killing, MTT assay, LIM1215. The note with it: LIM1215, 72 h, read-out: In vitro cell-killing (IC50), Cytotoxicity (72 hours). How it is done: as §1
The next experiment deals with SW620. The experiment is described as follows: In vitro cell-killing, MTT assay, SW620. The note with it: Homo sapiens, SW-620, 72 h, read-out: In vitro cell-killing (IC50), Cytotoxicity (72 hours). How it is done:
as §1

For another experiment, the system named is U138-MG (Glioblastoma). Briefly: In vitro cytotoxicity, MTT assay, U138-MG. The settings on record: Homo sapiens, U138-MG, 72 h, read-out: Cytotoxicity. How it is done:
The in vitro cytotoxicity of a selection of compounds were evaluated in a panel of cell lines using the standard MTT assay for a 72 hour incubation period (Table 2). Free payloads produced cytotoxicities in the nanomolar range.
Tumor cell lines were maintained in RPMI1640 medium supplemented with 10% heat-inactivated fetal bovine serum, 2 mM L-glutamine and 1 mM sodium pyruvate. 1800 cells per well were seeded in a volume of 180 μl in a 96-well flat bottom polystyrene plate. The cells were allowed to adhere overnight at 37° C. in a CO2 incubator. Ligands were initially formulated in DMSO, and stocks stored at −80° C. They were then further formulated at lox concentration in RPMI1640 medium. 20 ul of diluted samples were added into each treatment well. On each plate, blank wells with no cells, and untreated wells containing cells, were included. Plates were then cultured at 37° C. in a CO2 incubator for 72 hrs. Cytotoxicity was evaluated using a tetrazolium salt-based assay, the MTT assay. After 72 hours, the supernatant was removed from each well and 200 μl of a sterile filtered 500 μg/ml MTT solution in water added to each well. The plates were then incubated at 37° C. in a CO2 incubator for 4 hrs. The supernatant was then removed and the formazan crystals formed solubilized by adding 150 μl of DMSO to each well. The plate was then read on a plate reader at 540 nm, and percentage cell survival calculated as follows: ((mean absorbance treated wells at concentration x−mean absorbance blank wells)+(mean absorbance untreated wells at concentration x−mean absorbance blank wells))×100. Data were plotted as concentration in nM vs. % cell survival in Microsoft Excel, and IC50 values (concentration where cell survival is reduced by a half) were determined from the graph.

The test system of experiment [1] is transcription factors in HeLa cells. Briefly: Transcription factor plate array assay. The note with it: 100 nM, 6 hours. How it is done: The consensus sequences of each of these transcription factors corresponds to the DNA footprinting pattern observed for 16.
The transcription factor plate array assay kit was obtained from Signosis Inc (USA). Briefly, 2×10^6 HeLa cells were treated with 100 nM compound 16 and incubated for 6 hours before extracting the nuclear protein and carrying out the TF plate array assay. The assay was carried out following the manufacturer's protocol. In the case of each transcription factor, the RLU value obtained for the cells treated with 16 was deducted from the respective values obtained for the untreated cells to obtain the differences in TF activation/inhibition.

For another experiment, the system named is E. coli K12. The experiment is described as follows: MIC assay, E. coli K12. The settings on record: overnight (16-20 hour) incubation. How it is done: (§2) The antimicrobial activity of a selection of compounds were evaluated in a Gram-negative, Gram-positive and multi-resistant bacteria using the standard minimum inhibitory concentration (MIC) assay for an overnight (16-20 hour) incubation period. Commercially marketed antibiotics (Table 3) were used as positive controls during the study.
(§3) Mueller-Hinton broth (MH Broth) (Sigma-Aldrich; Millipore, cat. no. 70192) and Mueller-Hinton agar (MHA) (Sigma-Aldrich; Millipore, cat. no. 70191) were prepared as per manufacturer's instructions and sterilized by autoclaving. Approximately 20 mL of MHA was poured onto 15×100 mm petri dishes and allowed to set. Agar plates were then stored in plastic bags in an inverted position at 4° C.
(§4) Bacterial strains were provided in the form of a glycerol stock, stored at −80° C. For the purpose of preparation of bacterial suspension, appropriate strains were removed from −80° C. storage onto dry ice and not allowed to freeze-thaw.
(§5) Stock solutions of 16, 45 and 73 were provided in DMSO at 1.28 mg/mL concentration. From this stock solution, working solutions of the desired concentration were prepared by diluting with MHB.
(§6) MIC assay methodology was adapted from previously published work.
(§7) Bacterial isolate to be tested was streaked onto a nutrient-rich MH agar plate and incubated overnight at 37° C. in order to obtain single colonies.
(§8) After overnight incubation, single colonies with the same morphological appearance were chosen from the agar plate. These were touched using a sterile loop and transferred into a tube containing 10 mL of a MH broth. They were then mixed using vortex mixer and incubated at 35-37° C. in a shaker at 200 r.p.m. overnight.
(§9) Determination of OD600 and cfu/mL count OD600 (the optical density of a sample measured at a wavelength of 600 nm) of the overnight culture was measured. Because of the loss of linearity at OD600 values […], it was necessary to dilute the sample until the OD600 value was below 1.0. For all tested bacteria, a dilution of 1:10 was appropriate (100 μL in 900 μL broth).
(§10) The overnight culture was then diluted 1:100 using sterile tubes and MH broth (dilution: 10^−2). Serial dilution was then performed six times until dilution of 10^−8 was reached. 100 μL of dilutions 10^−7 and 10^−8 were plated onto MH agar plates in triplicate using a sterile cell spreader and incubated overnight at 37° C.
(§11) After overnight incubation, colonies on plates were counted and cfu per mL calculated. The following formula was applied: […]
For the generation of overnight cultures to be used for preparation of the bacterial suspension for MIC tests, a single colony of bacteria was selected using a sterile loop and a sterile tube with MH broth was inoculated followed by overnight incubation at […] in a shaker set to 200 r.p.m.
After overnight incubation, the OD600 was measured and the overnight culture was diluted accordingly to obtain 1×10^8 cfu/mL.
Free payload dilutions were prepared as per Table 4.
96-well sterile microtiter plates were used for MIC assay. The plate was filled with the respective free payload or positive control antibiotic concentrations in triplicate. 100 μL of broth was pipetted in the sterility control well (SC, column 12) and 50 μL in the growth control well (GC, column 11).
1×10^8 cfu/mL bacterial suspension was diluted 1:100 and 50 μL added to each well apart from SC. […]
(§12) The 96-well plates were read using a SpectraMax plate reader at an absorbance of 600 nm. […]

A further experiment deals with EMRSA 16. The experiment is described as follows: MIC assay, EMRSA 16. The settings on record: Staphylococcus aureus. How it is done: as §2, §3, §4, §5, §6, §7, §8, §9, §10, §11
After overnight incubation, the OD600 was measured and the overnight culture was diluted accordingly to obtain 1×10^8 cfu/mL. […]
as §12

SMILES strings stand for the structures. pIC50: −log10 of the molar value. In brackets after ≈: the same amount, converted by molar mass.

With `COc1cc2c(cc1OCCCC(=O)Nc1cc(C(=O)Nc3ccc(-c4cc(C(=O)Nc5ccc(N)cc5)n(C)c4)cc3)n(C)c1)NC[C@@H]1CCCCN1C2=O` [Compound 16, (S)—N-(4-Aminophenyl)-4-(4-(4-(4-((2-methoxy-12-oxo-5,6,6a,7,8,9,10,12-octahydrobenzo[e]pyrido[1,2-a][1,4]diazepin-3-yl)oxy)butanamido)-1-methyl-1H-pyrrole-2-carboxamido)phenyl)-1-methyl-1H-pyrrole-2-carboxamide], the pIC50 in the experiment on SW48 was 7.11; in the experiment on LIM1215, 7.14; with SW620, 7.10; in the experiment with U138-MG (Glioblastoma), 6.73. Also, the “major transcription factors down-regulated” value in experiment [1] is “GR/PR, CDP, ATG2 and Oct-4”. In addition, the MIC in the experiment on E. coli K12 (E. coli K12 (Gram-negative)) is 2 to 4 mg/L; in the experiment on E. coli K12 (Escherichia coli, K12, E. coli K12 (Gram-negative)) it was 2 mg/L (≈ 2.64 µM); against EMRSA 16 it was 0.25 to 0.5 mg/L (≈ 0.329 to 0.659 µM).

The values above are taken from patent US20210371413A1, “POLYCYCLIC AMIDES AS CYTOTOXIC AGENTS” (FEMTOGENIX LIMITED, priority 2018, published 2021).
